From patent US20240216458A1, “Composition for the prevention, improvement or treatment of allergic diseases comprising an extract of Cassia mimosoides L. as an active ingredient” (KOREA INSTITUTE OF SCIENCE AND TECHNOLOGY, priority 2022, published 2024)

Legend:
Type in all cases: cell-based, rat
Conditions in all cases: compound 20 μM
RBL-2H3 mast cells [1] = assay: Secretion of allergens in mast cell granules (beta-hexosaminidase activity, degranulation) after DNP-BSA stimulation
Description: First, rat basophilic leukocyte (RBL-2H3, American Type Culture Collection, USA) mast cells were cultured in minimal medium containing antibiotics and 10% bovine serum. After culturing, the cells were collected with trypsin, placed in a 24-well microtiter plate at 2×10^5 cells/well, and cultured until they grew to 80% confluence. The medium was replaced with PIPES buffer (25 mM PIPES, PH 7.2, 159 mM NaCl, 5 mM KCl, 0.4 mM MgCl2, 1 mM CaCl2), 5.6 mM glucose, and 0.1% BSA) for the cultured cells, and then ethanol extract of Cassia mimosoides L. prepared in <Example 1> was added to concentrations of 20 μg/ml and 40 μg/ml, respectively, and cultured for 1 hour. […]
The degree of secretion of allergy-inducing substances was determined by measuring the activity of beta-hexosaminidase, a marker of degranulation secreted in the medium, and the activity of beta-hexosaminidase was determined as the amount of p-nitrophenol liberated from p-nitrophenyl-acetyl-β-D-glucosaminide (Funaba M. et al., Cell Biol. Int., 27:879-85, 2003). […]
The degree of allergen secretion was determined by measuring the activity of β-hexosaminidase, a marker of degranulation, which was secreted in the medium, and the activity of β-hexosaminidase was determined as the amount of p-nitrophenyl liberated from p-nitrophenyl-acetyl-β-D-glucosaminide (Funaba M. et al, Cell Biol. Int., 27:879-85, 2003). […]

RBL-2H3 mast cells [2] = assay: Histamine production secreted by mast cells (EIA kit)
Description: (§1) First, RBL-2H3 mast cells were seeded at 2×10^5 cells/well in a 24-well microtiter plate containing Dulbecco's Modified Eagle's Media (DMEM) medium containing 2.5% fetal bovine serum, and cultured until they grew to 80% confluence. Afterwards, ethanol extract of Cassia mimosoides L. prepared in <Example 1> was added to serum-free DMEM medium at a concentration of 20 μg/ml and 40 μg/ml, respectively, and mast cells were cultured for 24 hours. After treating mast cells with DNP-BSA for 30 minutes, the cell culture fluid was collected, centrifuged, and only the supernatant was harvested. The amount of histamine in the supernatant was confirmed using an EIA kit (Bertin Pharma, France).
Mast cells were cultured in the same manner as in Example 3, and then treated with 17 compounds isolated in Example 12 at a concentration of 20 μM, respectively.

RBL-2H3 mast cells [3] = assay: Interleukin-4 production secreted by mast cells (ELISA)
Description: as §1, with “interleukin-4” for “histamine”, “ELISA” for “EIA”, “(Invitrogen, USA).” for “(Bertin Pharma, France).”
Mast cells were cultured in the same manner as in Example 5, and then treated with 17 compounds isolated in Example 12 at a concentration of 20 μM, respectively.

RBL-2H3 mast cells [4] = assay: Prostaglandin E2 production secreted by mast cells (ELISA)
Description: as §1, with “prostaglandin E2” for “histamine”, “ELISA” for “EIA”, “(R&D systems, USA).” for “(Bertin Pharma, France).”
Mast cells were cultured in the same manner as in Example 6, and then treated with 17 compounds isolated in Example 12 at a concentration of 20 μM, respectively.

RBL-2H3 mast cells [5] = assay: TNF-α production secreted by mast cells (ELISA)
Description: as §1, with “TNF-α” for “histamine”, “ELISA” for “EIA”, “(Invitrogen, USA).” for “(Bertin Pharma, France).”
Mast cells were cultured in the same manner as in Example 4, and then treated with 17 compounds isolated in Example 12 at a concentration of 20 μM, respectively.

Oc1ccc2c(c1)OC(c1ccc(O)c(O)c1)C[C@H]2c1c(O)cc(O)c2c1OC(c1ccc(O)c(O)c1)[C@@H](O)C2 (stereo partly drawn) [KA-1, (2S)-3′,4′,7-trihydroxyflavan-(4 β - >8)-catechin]
excellent efficacy: mast cell degranulation (RBL-2H3 mast cells [1]) | production of histamine secreted by mast cells (RBL-2H3 mast cells [2]) | production of interleukin-4 secreted by mast cells (RBL-2H3 mast cells [3]) | production of prostaglandin E2 secreted by mast cells (RBL-2H3 mast cells [4]) | production of TNF-α secreted by mast cells (RBL-2H3 mast cells [5])

Oc1ccc2c(c1)OC(c1ccc(O)c(O)c1)CC2c1c(O)cc(O)c2c1OC(c1ccc(O)c(O)c1)[C@@H](O)C2 (stereo partly drawn) [KA-2, (2S)-3′,4′,7-trihydroxyflavan-(4 α - >8)-catechin]
excellent efficacy: mast cell degranulation (RBL-2H3 mast cells [1]) | production of histamine secreted by mast cells (RBL-2H3 mast cells [2]) | production of interleukin-4 secreted by mast cells (RBL-2H3 mast cells [3]) | production of prostaglandin E2 secreted by mast cells (RBL-2H3 mast cells [4]) | production of TNF-α secreted by mast cells (RBL-2H3 mast cells [5])
